Reference: patent publication EP0315491A2, “Amino-substituted pyrylium dyes and uses thereof” (EASTMAN KODAK COMPANY (a New Jersey corporation), priority 1987, dated 1989)
Where two headings read alike, the source gives them in different places.

Key:
[1] = test system: human ovarian carcinoma line OVCAR-3; assay: Ovarian carcinoma (OVCAR-3) test using nude mice protocol (survival, T/C); format: in vivo; settings: for T/C: female nude mice, OVCAR-3 xenograft, three injections per week for 6 weeks (Fig. 3)
Text: The present invention will now be described by way of example with reference to the accompanying drawings in which: Figures 1-4 are survival plots of cancer-bearing mice treated with the dyes of this invention, compared to a control group of such mice left untreated. In these plots, "% survival" means the percentage of the total group (treated "T" or control "C") still surviving on the day in question. The 50% data point is selected for the T/C calculation, as being the point that is statistically meaningful. Nude mice, that is, those deficient in thymic functions, bred and maintained in pathogen free conditions [see J. Natl. Cancer Inst. 51:615-619 (1973)] were used in in vivo experiments. For each experiment, nude mice from the same litter and of the same sex which were over 3 months old and weighed at least 25g were injected or implanted with cancer cells. Examples 6 and 7 were repeated, except they were administered to female nude mice (aged 8-12 weeks) xenografted with human ovarian carcinoma line OVCAR-3. Eight mice in Example 6, and 8 mice in Example 7 were selected for treatment with the thiopyrylium, in an amount of 2.5 and 5 mg/kg respectively, administered IP 1 day after the cancer cells were injected. This was repeated as follows: Three injections per week for 6 weeks. Eight mice were used as the control group and were injected with 0.25 ml of 5% dextrose in water.

[2] = test system: human melanoma cell line, LOX; assay: Melanoma test using nude mice protocol (survival, T/C); format: in vivo
Text: The present invention will now be described by way of example with reference to the accompanying drawings in which: Figures 1-4 are survival plots of cancer-bearing mice treated with the dyes of this invention, compared to a control group of such mice left untreated. In these plots, "% survival" means the percentage of the total group (treated "T" or control "C") still surviving on the day in question. The 50% data point is selected for the T/C calculation, as being the point that is statistically meaningful. Effectiveness against human cancer can be inferred by tests in the nude mouse-human xenograft model, hereinafter "nude mice protocol". […] 899-903, especially p. 889 (April 1985). Nude mice, that is, those deficient in thymic functions, bred and maintained in pathogen free conditions [see J. Natl. Cancer Inst. 51:615-619 (1973)] were used in in vivo experiments. For each experiment, nude mice from the same litter and of the same sex which were over 3 months old and weighed at least 25g were injected or implanted with cancer cells. A human melanoma cell line, LOX, was used that grows rapidly when inoculated into the peritoneal cavity of the athymic mice. Tumors which had been passaged subcutaneously in athymic mice were excised under sterile conditions and converted to a single cell suspension using a metal grid with a 4 mm mesh. Red blood cells were then lysed by incubation with 0.17 molar ammonium chloride at 4°C for 30 minutes. Cells were then scored for viability with trypan blue and 5 million viable cells made up in 0.2 ml of Dulbecco modified Eagles' medium (DME) were injected intraperitoneally (IP) into a group of male athymic Swiss nu/nu mice (day 0). The mice were then randomly allocated into treatment and control groups (5% dextrose) and treatment, by intraperitoneal injection commenced the following day. In Example 6, five mice received 5 mg/kg of the drug T-5, Table I, administered Monday, Wednesday & Friday of each week for a total of 11 injections. Five mice received the same volume of the control 5% dextrose solution on the same days. […]

L1210 leukemia cells = assay: In vitro IC50, suspension culture, cell count by Coulter Counter; format: cell-based; settings: compound present for 48 hours (four cell doubling times), read-out: IC50 L1210 Mouse Lymphoma
Method: (§1) Although these examples were not tested in animal models, their similar efficacy in human melanoma and differentiated carcinomas is predicated from the fact they had similar in vitro results compared to T-5. The in vitro tests were run as follows, to ascertain the IC₅₀ concentrations. (IC₅₀ is the in vitro concentration that kills one-half the cell line against which the compound is tested. The smaller the concentration, the higher the toxicity.)
(§2) For the IC₅₀ values for the human lung carcinoma line, an adhering monolayer culture was used. Two days prior to plating, a number of cells obtained from the American Type Tissue Culture Collection was selected to grow as a stock, the number being that which would ensure the cells had not reached their plateau at the time of the in vitro test. On day 1 of the assay, asynchronous exponentially growing cells from this stock were suspended in a conventional complete medium comprising RPMI 1640 medium supplemented with 5% (v/v) fetal calf serum and 5% (v/v) NV serum obtained from Collaborative Research, and 20mM HEPES buffer, i.e., 4-(2-hydroxyethyl)-1-piperazineethanesulfonic acid. This was plated into a conventional 96-well tissue culture plate using a Cetus/Perkin Elmer automated pipetting device with a dual supply manifold. The cells were then incubated for 48 hours at 37°C in a humidified atmosphere containing 5% CO₂. Selected cells were then incubated under red light for 3 hours in the presence of varying amounts of the compound of interest at 37°C in a humidified incubator containing 5% CO₂. Compounds were tested over a 6-log range of concentrations. The drug treated cells were then rinsed one time with complete medium as set forth above, and incubated in complete medium the length of time appropriate to achieve four cell-doubling times (roughly 7 days for these cell lines). The medium was removed and the cells stained for 1-2 hours at 37°C with 0.1% (w/v) neutral red dye obtained from Eastman Kodak Co., dissolved in phosphate buffered saline (PBS) (without calcium or magnesium cations) at a pH of 6.85. The cells were rinsed twice with the same PBS and dried. Excess neutral red dye was eluted from each well with 50% (v/v) ethanol in 1% (v/v) aqueous glacial acetic acid. The absorbency of each well was quantitated using a Perkin-Elmer absorbence densitameter set at 540 nm. The percent of inhibition of cell growth for a given concentration of compound was calculated using the equation: [formula] where At = absorbence of the cells treated with the candidate drug, Au = absorbence of the control treated with solvent only, and Ab = absorbence of the media and well only (background). […] The plotted data was then fitted to the curve for the function: F(x) = 100 - [100(X/A)^B/(1+(X/A)^B)] where x = the concentration of the test compound, A = the IC₅₀ value (50% inhibition on the plot) and B = the exponent of the fitted function.
To determine the IC₅₀ for the L1210 leukemia cells, a suspension culture was used. The procedure for the monolayer culture was followed, except that the cells were seeded at a density of 3 X 10⁴ cells/ml in the RPMI 1640 medium supplemented this time with 10% (v/v) NV SERUM, no calf serum, and 20mM HEPES buffer, with the compound of interest already added. These were added immediately to a conventional 24-well culture plate and incubated for a four cell doubling time (48 hours for this cell line). Cell numbers were quantitated using the Model ZF Coulter Counter. F(x) was obtained from the equation: [formula] where Nt = number of treated cells detected, never less than No, Nu = number of cells detected in the control that were untreated except for the solvent, and No = number of cells initially seeded.

[3] = test system: human lung carcinoma line; assay: In vitro IC50, adhering monolayer culture, neutral red staining; format: cell-based; settings: 3 hours drug exposure under red light, then about 7 days growth, read-out: IC50 Lung Adeno-carcinoma
Method: as §1, §2

MB49 tumor cells [4] = assay: Mouse bladder carcinoma, tumor cells and drug given IP (survival, T/C); format: in vivo; settings: normal male BDFI mice, MB49 cells IP
Text: The present invention will now be described by way of example with reference to the accompanying drawings in which: Figures 1-4 are survival plots of cancer-bearing mice treated with the dyes of this invention, compared to a control group of such mice left untreated. In these plots, "% survival" means the percentage of the total group (treated "T" or control "C") still surviving on the day in question. The 50% data point is selected for the T/C calculation, as being the point that is statistically meaningful. MB49 tumor cells, that is, mouse carcinoma cells induced by the carcinogen 7,12-dimethyl benz[a]anthracene, were obtained by conventional processes and injected intraperitoneally into normal male BDFI mice (5 million/mouse). Each drug treated group and control group had 5 mice. In example 8, 5 mg/kg of T-5 was administered 3 times per week for three weeks, starting Day 1. In Example 9, it was 3 mg/kg three times per week for 3 weeks.

MB49 tumor cells [5] = assay: Mouse bladder carcinoma, tumor cells mixed with drug before instillation into the bladder (bladder weight); format: in vivo; settings: 21 days after tumor initiation; from mean bladder weights vs controls; MB49 cells (4 X 10⁶) mixed with 0.05 mg/ml drug before instillation into the mouse bladder
Method: These values were calculated by dividing the difference between the mean weight of bladders from controls (water-treated animals) and mean weight of bladders of drug-treated animals by the mean weight of bladders from control animals and multiplying this fraction by 100. (In this experiment, the drug was administered by mixing the MB49 tumor cells (4 X 10⁶) with 0.05 mg/ml of the drug prior to instillation of the cell suspension into the mouse bladder.)

With `CN(C)c1ccc(-c2cc(-c3ccccc3)[s+]c(-c3ccccn3)c2)cc1` [4-(4-N,N-dimethylaminophenyl-2-phenyl-6-(2-pyridyl)thiopyrylium chloride, reference compound] the “T/C against the ovarian carcinoma” value ([1]; comparative example, xenografted human ovarian cancer, very similar procedures, dose not stated, also listed in the Related Application) was 340% and the T/C against melanoma ([2]; comparative example, xenografted human melanoma, very similar procedures, dose not stated, also listed in the Related Application) was 227%.

`CN(C)c1ccc(-c2cc(-c3cccc(N)c3)[s+]c(-c3cccc(N)c3)c2)cc1` [Compound T-1, 2,6-Bis(3-aminophenyl)-4-[4-(dimethyl-amino)phenyl]thiopyrylium chloride] gave an IC50 (L1210 leukemia cells; Mus musculus, L1210, 48 h) of 38 nM and an IC50 ([3]; Homo sapiens) of 370 nM.

For `Nc1ccc(-c2cc(-c3ccc(N)cc3)[s+]c(-c3ccc(N)cc3)c2)cc1` [Compound T-2, 2,4,6-Tris(4-aminophenyl)thiopyrylium chloride], the IC50 (L1210 leukemia cells; Mus musculus, L1210, 48 h) was 270 nM and the IC50 ([3]; Homo sapiens) was 190 nM.

Work on `Nc1ccc(-c2cc(-c3ccccc3)cc(-c3ccc(N)cc3)[s+]2)cc1` [Compound T-3, 2,6-Bis(4-aminophenyl)-4-phenylthiopyrylium chloride] yielded an IC50 (L1210 leukemia cells; Mus musculus, L1210, 48 h) of 33 nM and an IC50 ([3]; Homo sapiens) of 17 nM.

`COc1ccc(-c2cc(-c3ccc(N)cc3)[s+]c(-c3ccc(N)cc3)c2)cc1` [Compound T-4, 2,6-Bis(4-aminophenyl)-4-(4-methoxyphenyl)-thiopyrylium chloride] showed an IC50 (L1210 leukemia cells; Mus musculus, L1210, 48 h) of 10 nM and an IC50 ([3]; Homo sapiens) of 11 nM.

`CN(C)c1ccc(-c2cc(-c3ccc(N)cc3)[s+]c(-c3ccc(N)cc3)c2)cc1.[Cl-]` [Compound T-5, 2,6-Bis(4-aminophenyl)-4-[4-(N,N-dimethyl-amino)phenyl]thiopyrylium chloride] showed a T/C (MB49 tumor cells [4]; 3 mg/kg three times per week for 3 weeks (Example 9, Fig. 4)) of 344%, a T/C (MB49 tumor cells [4]; 5 mg/kg 3 times per week for three weeks (Example 8, Fig. 4)) of 244% and an IC50 (L1210 leukemia cells; Mus musculus, L1210, 48 h) of 220 nM. For the same compound, the IC50 (L1210 leukemia cells) was 140 nM, the IC50 [3] was 60 to 80 nM and the IC50 ([3]; Homo sapiens) was 40 nM. The T/C ([1]; 2.5 mg/kg IP) was greater than 450%, the T/C ([1]; 5 mg/kg IP) was greater than 450% and the T/C ([2]; male athymic Swiss nu/nu mice, LOX cells IP, 5 mg/kg IP Monday, Wednesday & Friday, 11 injections, 50% survival point (Fig. 1)) was 366%. The “Survival (T/C)” value ([2]; male athymic Swiss nu/nu mice, LOX cells IP, 8 mg/kg IP Wednesday and Saturday for 3 weeks (Fig. 2)) was 338%.

For `CN(C)c1ccc(-c2cc(-c3ccccc3)[s+]c(-c3ccc(N(C)C)cc3)c2)cc1` [Compound T-6], the “average inhibition in tumor growth” value (MB49 tumor cells [5]) was 21.6%.
